Source: publication PMC9962735, “Synthesis and Cytotoxic Activity of the Derivatives of N-(Purin-6-yl)aminopolymethylene Carboxylic Acids and Related Compounds” (Molecules, 2023)

Legend:
[1] = MTT cytotoxicity assay, Jurkat; type: cell-based, human; conditions: human, read-out: SCI (selective cytotoxicity index)
Text: (§1) The cytotoxicity of the test compounds was studied using the MTT assay against a number of cell lines: CT-26 murine colon carcinoma, 4T1 murine mammary carcinoma, MDA-MB-231 human breast adenocarcinoma, COLO201 human colorectal adenocarcinoma, HepG2 human hepatocellular carcinoma, A549 human non-small-cell lung carcinoma, SK-BR-3 human breast adenocarcinoma, SNU-1 human gastric carcinoma, Jurkat human acute T-lymphoblastic leukemia, and WI-38 human lung fibroblasts (normal cells). Doxorubicin (Dox) was used as a reference drug. Cells were incubated with test compounds for 72 h.
(§2) Cells were seeded in flat-bottomed 96-well plates at 10,000 cells per well (for A549, SNU-1, WI-38, CT-26, MDA-MB-231, 4T1, and HepG2 cells) or 20,000 cells per well (for SK-BR-3, Jurkat, and COLO201 cells) and cultivated in complete culture mediums (for composition of each medium, see the Supplementary Materials, Table S1) in a CO2 incubator at 37 °C. At the first stage of this study, the test compounds dissolved in DMSO were added to the wells with cells at final concentrations from 1 × 10^–4 to 1 × 10^–10 mol/L (A549, SK-BR-3, SNU-1, Jurkat, and WI-38) or 1 × 10^–3 to 1 × 10^–8 mol/L (CT-26, MDA-MB-231, 4T1, COLO201, and HepG2); DMSO concentration in the wells was finally 1%. A complete cultural medium and DMSO were added to the control wells at the same concentration as in the experimental wells; 0.1% Triton X-100 solution (10 µL) was added to the corresponding wells as a non-specific positive control. After adding the test compounds, the cells were incubated for 72 h in an atmosphere containing 5% CO2. After that, the nutrient medium was removed from each well (in the case of SK-BR-3, Jurkat, and COLO201, plates were pre-centrifuged at 1500 rpm for 6 min). A solution of the commercial anticancer agent Doxorubicin (Dox, Sigma-Aldrich, St. Louis, MO, USA) in DMSO was used as a reference drug. Then, 150 µL of a complete medium with the MTT reagent (PanEco, Moscow, Russia) at a concentration of 0.5 mg/mL was added and incubated for 2 h. Formazan crystals were dissolved in DMSO (200 µL) and the absorbance in the wells was measured at 540 nm and a reference wavelength of 650 nm (Sunrise, Tecan, Groding, Austria). Experiments were performed in three parallel runs. Cell viability after incubation in the presence of test compounds was calculated in relation to cell viability in the control wells according to the Formula (1):Cell viability (%) = (Aexp/Ac) × 100,(1) where Aexp is the optical density of solutions in the wells containing test compounds; Ac is the optical density of solutions in control wells without test compounds. For detailed information on cell viability of various cell lines, see the Supplementary Materials, Figures S21–S26.
(§3) At the second stage of this study, in order to more accurately calculate the CC50 (the half maximal inhibitory concentration), the cytotoxic effect of test compounds was evaluated at concentrations close to CC50 found at the first stage. The study of the cytotoxic activity of each substance towards the cells of each line was carried out in triplicate; the mean value was used to calculate CC50. The CC50 values were determined by non-linear regression analysis using Graph-Pad Prism7.

[2] = system: Jurkat human acute T-lymphoblastic leukemia; test: MTT cytotoxicity assay, Jurkat; type: cell-based; conditions: Homo sapiens, Jurkat; for CC50: 72 h, 72 h incubation, MTT; for viability at 100 µM: 1 × 10^–4 M, mean ± SD (n = 3), read-out: Cell viability
Text: as §1, §2, §3

[3] = MTT cytotoxicity assay, SK-BR-3; type: cell-based, human; conditions: human, read-out: SCI (selective cytotoxicity index)
Text: as §1, §2, §3

[4] = system: SK-BR-3 human breast adenocarcinoma; test: MTT cytotoxicity assay, SK-BR-3; type: cell-based; conditions: Homo sapiens; for CC50: SK-BR-3, 72 h, SK-BR-3, 72 h incubation, MTT; for viability at 100 µM: SK-BR-3, 1 × 10^–4 M, mean ± SD (n = 3), read-out: Cell viability
Text: as §1, §2, §3

MDA-MB-231 cells = test: Cell cycle analysis by flow cytometry (propidium iodide), MDA-MB-231; type: cell-based, human; conditions: 24 h; for Cell proliferation index (%) / Number of cells (%) in cell cycle phase G0/G1 / Number of cells (%) in cell cycle phase G2M / Number of cells (%) in cell cycle phase S: M ± SD (n = 3)
Experimental: To study the potential cytostatic effect of compound 1d, we chose the method of cell cycle analysis using flow cytometry by DNA staining with propidium iodide.
To analyze possible effects on the cell cycle, we tested three concentrations of compound 1d, which were close to CC50 calculated on the basis of viability assessment data (MTT assay).
Cell cycle analysis was performed by flow cytometry by staining DNA with propidium iodide (PI). For this, cells were seeded into 6-well plates: 2 × 10^5 COLO201 cells per well and 1.2 × 10^5 MDA-MB-231 cells per well. […] The final concentration of DMSO in the culture medium was 0.1%; an equivalent volume was added to the control cells. The plates were incubated for 24 h in a CO2 incubator. Then, cells were detached from the plastic surface using TrypLE, washed with PBS, and fixed with 70% ethanol. Next, the cells were incubated for 1 h in the dark at 4 °C, then sedimented by centrifugation at 184× g for 10 min, and washed twice with PBS. PBS (0.3 mL) containing 0.1% Triton X-100, 1 µg/mL PI, and 0.2 mg/mL RNAse A was added to the pellet, incubated for 30 min at room temperature in the dark, and analyzed on a CytoFlex flow cytometer (Beckman Coulter, Brea, CA, USA).
The cell population in the test sample was found and gated on forward versus side scatter (FSC-A vs. SSC-A). Next, doublets were discriminated and removed via PI signal height versus PI signal area (PI-H vs. PI-A). For cell cycle phases analysis, PI-A was plotted against number of events (number of cells) (PI-A vs. Count).
The flow cytometry data were processed using the Kaluza Analysis 2.1 software (Beckman Coulter, Brea, CA, USA). Percentages of cell populations distributed in the various phases of the cell cycle (sub-G1, G0/G1, S, and G2M) were calculated. The result was considered significant if the coefficient of variation (CV) was less than 6.

Vero E6 cells = system: Vero E6 cells; parameters: method as in doi:10.1007/s10593-021-02929-z; conditions: cited from earlier work
[5] = Solubility in aqueous media; type: physicochemical; conditions: result in words
[6] = CC50 of WI-38 divided by CC50 of Jurkat (Table 1)
[7] = CC50 of WI-38 divided by CC50 of SK-BR-3 (Table 1)

CC1COc2c(ccc(F)c2F)N1C(=O)CCCCCCCNc1ncnc2[nH]cnc12 (stereo not shown) [Compound 1c]
selectivity ratio at 72 h [1, 6]: 5.9 | CC50 ([2]; n = 3 (Table 1)): 8.5 µM | viability at 100 µM [2]: 8 ± 2% | selectivity ratio at 72 h [3, 7]: 0.67 | CC50 ([4]; n = 3 (Table 1)): 75 µM | viability at 100 µM [4]: 8%

CC1COc2c(ccc(F)c2F)N1C(=O)CCCCCCCCCCNc1ncnc2[nH]cnc12 (stereo not shown) [Compound 1d]
Cell proliferation index (%) (MDA-MB-231 cells; MDA-MB-231, 10×10–6 M): 39.08% | Number of cells (%) in cell cycle phase G0/G1 (MDA-MB-231 cells; MDA-MB-231, 10×10–6 M): 60.92% | Number of cells (%) in cell cycle phase G2M (MDA-MB-231 cells; MDA-MB-231, 10×10–6 M): 13.74% | Number of cells (%) in cell cycle phase S (MDA-MB-231 cells; MDA-MB-231, 10×10–6 M): 25.33% | Cell proliferation index (%) (MDA-MB-231 cells; MDA-MB-231, 20×10–6 M): 37.57% | Number of cells (%) in cell cycle phase G0/G1 (MDA-MB-231 cells; MDA-MB-231, 20×10–6 M): 62.13% | Number of cells (%) in cell cycle phase G2M (MDA-MB-231 cells; MDA-MB-231, 20×10–6 M): 17.05% | Number of cells (%) in cell cycle phase S (MDA-MB-231 cells; MDA-MB-231, 20×10–6 M): 20.52% | Cell proliferation index (%) (MDA-MB-231 cells; MDA-MB-231, 30×10–6 M): 40.63% | Number of cells (%) in cell cycle phase G0/G1 (MDA-MB-231 cells; MDA-MB-231, 30×10–6 M): 59.37% | Number of cells (%) in cell cycle phase G2M (MDA-MB-231 cells; MDA-MB-231, 30×10–6 M): 27.49% | Number of cells (%) in cell cycle phase S (MDA-MB-231 cells; MDA-MB-231, 30×10–6 M): 13.13% | cell cycle arrest phase (MDA-MB-231 cells; MDA-MB-231, entire range of concentrations studied): arrest of the cell cycle in the G0/G1 phase | concentration which caused the death of 50% Vero E6 cells (Vero E6 cells): less than 30 µM | solubility in aqueous media [5]: low solubility in aqueous media | selectivity ratio at 72 h [1, 6]: 2.5 | selectivity ratio at 72 h ([1]; CC50 of WI-38 divided by CC50 of Jurkat (Table 3)): 2.1 | CC50 ([2]; n = 3 (Table 1)): 8.5 µM | CC50 ([2]; n = 3 (Table 3)): 10 µM | viability at 100 µM [2]: 10 ± 4% | selectivity ratio at 72 h [3, 7]: 0.28 | selectivity ratio at 72 h ([3]; CC50 of WI-38 divided by CC50 of SK-BR-3 (Table 3)): 0.75 | CC50 ([4]; n = 3 (Table 1)): 75 µM | CC50 ([4]; n = 3 (Table 3)): 28 µM | viability at 100 µM [4]: 8 ± 2%
